Several values for one entry are separate records, joined by “and”; a condition that tells them apart may be missing. Identical values can stand only once. Like-named read-outs stand apart in the source and are kept apart here. Where no end group is shown, it is not given here.
Columns and labels:
[1] = system: binding of CS27IVC to liver sections; assay: Peptide inhibition of CS27IVC binding to frozen liver sections; set-up: species or system rat; details: peptide preincubation, up to 500 μg/ml
Protocol: The procedure was carried out essentially as described by Dukor P. et al., Proc. Natl. Acad. Sci. USA 67:991-997, 1970 and Imai Y. et al., J. Cell. Biol. 111:1225-1232, 1990. Rats were euthanized with CO2. Small pieces of the liver, spleen, heart, brain and lung were removed, snap frozen in liquid nitrogen, embedded in Tissue Tek O.C.T. (Miles, Inc., Naperville, Ill.), and cut into 5 μm sections. Sections were dried for 30 min., fixed for 10 min. in 4% paraformaldehyde, rinsed three times with phosphate-buffered saline (PBS), and either used immediately or stored at 4° C. in 1% BSA, 0.5% Tween, PBS (BSA/TPBS). After blocking with 100 mM glycine (pH 7.2) and with BSA/TPBS, the sections were sequentially incubated at 37° C. with recombinant proteins for 1 hr, 10 μg/ml MAb 2A10 for 45 min., and rat anti-mouse immunoglobulin conjugated to fluorescein isothiocyanate (Boehringer Mannheim, Indianapolis, Ind.) for 45 min. The slides were counterstained for 10 min. with 0.3% Evans blue, rinsed extensively in PBS, and finally observed under a fluorescence microscope. For peptide inhibition experiments, the sections were first incubated with the peptide at various concentrations in BSA/TPBS for 1 hour at 37° C., washed six times with BSA/TPBS, and then stained with 2.5 μg/ml CS recombinant protein as described above. In a few experiments, the tissues were fixed for 10 min. with methanol, acetone, or 4% paraformaldehyde containing 0.5% glutaraldehyde.

P. berghei sporozoites [2] = format: cell-based; details: for Number of EEF (Mean ± SD): schizonts per 20 fields
Protocol: Assays were conducted according to the methods described by Hollingdale, M. R. et al.. Science 213:1021-1022, 1981. and Sinden, R. E., WHO Bulletin MOS (Suppl.) 68:115-125, 1990. HepG2 cells were plated in FCS-MEM at a density of 0.5×10^6 cells/ml in 8-chamber slides (4808 Lab-tek, Naperville, Ill.) 24 hr. before each experiment. […] For antibody inhibition experiments, sporozoites were preincubated in FCS-MEM alone, or FCS-MEM containing anti-Region II IgG, or with preimmune sera IgG for 30 min. at 4° C. Sporozoites (5×10^4), in a volume of 100 μl, were added to each well. The medium was replenished after 2 hr. and changed after 18 and 28 hr. Each point was performed in quadruplicate. In experiments designed to evaluate the toxicity of the peptides and antisera, sporozoites were first incubated with the HepG2 cells for 2 hr in FCS-MEM. FCS-MEM containing the peptide at a concentration of 250 μg/ml (or the IgGs at a concentration of 700 μg/ml) was then added to the cultures, and incubation proceeded for two additional hours. As above, FCS-MEM was changed after 18 and 28 hr. All cultures were fixed with cold methanol containing 0.3% H2O2 after 48 hr. […] The number of exoerythrocytic forms in 20 fields was counted in a double-blind fashion under a 20× light microscope objective.
The number of exoerythrocytic forms (“EEF”) of the parasite that developed in the HepG2 cells were counted two days later. […] In Table 2, “Number of EEF” represents the average number of schizonts counted per 20 fields under 20-times magnification of a light microscope in quadruplicate wells; P values were calculated by one-way analysis of variances corrected by the Bonferroni method using the commercially available computer program GraphPAD Instat, version 1.14, copyright 1990. […]

[3] = system: binding of CSFZ(Cys) to HepG2 cells; assay: Inhibition of CS binding to HepG2 cells by glycosaminoglycans; set-up: species or system human; details: preincubated with 5 μg/ml CSFZ(Cys); FIG. 9
Protocol: 10^5 HepG2 cells were deposited in 96-well Removawell tissue culture plates and allowed to grow overnight in MEM (Gibco) containing 10% FCS, 1 mM L-glutamine (Gibco), 3 mg/ml glucose (Sigma) and 1× non-essential amino acids (Gibco). The HepG2 cells were fixed with 4% paraformaldehyde in TBS (50 mM Tris-HCl, pH 7.5, 137 mM NaCl, 2 mM KCl), were washed 3 times with TBS, and were stored at 4° C. in BSA/TBS until use. CSFZ(Cys) at 5 μg/ml was incubated with increasing amounts of the presumed inhibitors at 37° C. for 15 min. Fifty μl of these mixtures were added to the cells, incubated for 1 hr at 37° C., washed 3× with TBS/0.05% Tween and then sequentially incubated with 50 μl of mAb 2A10 at a concentration of 10 μg/ml in TBS/BSA buffer for 30 min at 37° C., and 1:5000 dilution of goat anti-mouse IgG conjugated to alkaline phosphatase (Boehringer) for 30 minutes. […] After 15 minutes, the fluorescence was measured in a Fluoroskan II plate reader (ICN).
Proteoglycans were preincubated with 5 μg/ml of CSFZ(Cys) and then were added to paraformaldehyde-fixed HepG2 cells. […] Each point represents the mean of triplicates. Percent inhibition was calculated by comparison to CSFZ(Cys) preincubated in medium alone.

[4] = system: heparan sulfate proteoglycans (HSPG); assay: CS/proteoglycan co-immunoprecipitation; format: binding, human; details: for effect on co-immunoprecipitation of the CS receptor by CSFZ(Cys): 100 μg/ml added to 35SO4-labeled HepG2 cell extracts; for effect on co-immunoprecipitation of purified proteoglycans by CSFZ(Cys): purified trypsin-released HepG2 proteoglycan, FIG. 17
Protocol: All extracts and supernatants were first precleared with normal rabbit serum and Staph A cells. Then 32 μg/ml of CSFZ(Cys) or 64 μg/ml of CS27IVC, Falc-2 or Falc-1 were added for 30 minutes, followed by 10.8 μg/ml mAb 2A10 for 30 minutes, and 1% Staph A cells (final concentrations). The suspensions were shaken for 1 to 5 hours at 4° C. The Staph A cells were washed 3 times with the lysis buffer A, 2 times with lysis buffer B (10 mM Tris-HCl, pH 7.2, containing 100 mM NaCl and 0.5% NP40), 1 time with 50 mM Tris-HCl, ph 7.2, and were processed in this buffer for electrophoresis under reducing and non-reducing conditions.
Extracts of cells metabolically labeled with ^35SO4 were incubated for 30 minutes at 4° C. with 32 μg/ml of recombinant CSFZ(Cys) or 64 μg/ml Falc-1, and were immunoprecipitated with mAb 2A10 and Staph A cells. […] Immunoprecipitation with Falc-1 was negative. The SDS-PAGE patterns of the total lysate of HepG2 cells, and of the molecules co-immunoprecipitated with CSFZ(Cys) resembled the corresponding liver SDS-PAGE patterns. In kidney lysates, CSFZ(Cys) selectively immunoprecipitated a band of slightly lower molecular weight than the total kidney sulfated molecules.
Sub-confluent HepG2 cells were incubated with various concentrations of trypsin for 5 minutes at 4° C. […] Independently of the trypsin concentration, about 80% of the released HSPG was co-immunoprecipitated by 32 μg/ml CSFZ(Cys) and 10.8 μg/ml mAb 2A10. Under the same conditions, Falc-1 was negative.
^35SO4-labeled trypsin-released proteoglycan (total supernatant) was precipitated by CSFZ(Cys) (32 μg/ml), Falc-2 (64 μg/ml), CS27IVC (64 μg/ml) and Falc-1 (64 μg/ml). The labeled molecules were incubated with CSFZ(Cys), CS27IVC, and Falc-2 at equivalent concentrations of Region II+, and co-immunoprecipitated with the mAb 2A10. CSFZ(Cys), lacking most of the repeat region, precipitated up to 86% of the total sulfate-labeled proteoglycans (see FIG. 14), while CS27IVC and Falc-2 precipitated only 18% and 6% of the counts, respectively. Falc-1, which lacks Region II+, was negative.
Subconfluent sulfate-labeled HepG2 cells were incubated with 20 μg/ml trypsin for 5 minutes at 4° C., and the supernatants were loaded onto an anion exchange chromatography Pharmacia mono-Q column. These were eluted with a 0 to 2 M NaCl gradient in the presence of 7 M urea. […] Protein was not detectable in the labeled peaks. One ml fractions were collected and counted.

[5] = system: Vivax-2 binding to cholesterol-sulfate; assay: Inhibition of binding of Vivax-2 to cholesterol-sulfate; set-up: species or system P. vivax
Protocol: (§1) Solid phase binding assays: Thirty μl of lipids or steroids dissolved in methanol (20-250 μg/ml) were dried into wells of microassay plates (Cat.# 3911—Falcon—Oxnard, Calif.). The plates were then blocked with 1% BSA/PBS pH 7.4 (BSA/PBS) for 30 minutes. Wells were incubated with recombinant protein (or with parasite extract) in PBS/BSA for 1 hour, washed 3 times with BSA/PBS, incubated for 1 hour with monoclonal antibodies 2F2 or 2A10 in BSA/PBS, washed 3 times, and then incubated with (10^5 cpm/well) ^125I protein A (Amersham Corp., Arlington Hts., Ill.). In the case of the P. berghei CS protein, wells were incubated with ^125I labelled mAb 3D11. Wells were washed again and the bound radioactive protein was counted in an LKB gamma-counter (model #1260, Pharmacia, Inc., Gaithersburg, Md.). For inhibition assays, the recombinant proteins were mixed with dilutions of the various polymers in BSA/PBS, the mixture was loaded into the wells of the microtiter plates, and the binding assay performed as above. See also, Roberts, et al. J. Biol. Chem. 260:9405-9411, 1985.

P. berghei sporozoites [6] = assay: Infection assay of HepG2 cells with polymers; format: cell-based; details: for invasion of hepatocytes by sporozoites in vitro: no conditions given; for effect on sporozoite invasion: present during invasion, 5-50 μg/ml
Protocol: Infection assay: Semiconfluent monolayers of HepG2 cells were grown in 10% FCS/MEM on 8 chamber slides (#4808 Lab-tek -Naperville, Ill.) for 24 hours prior to each experiment. Sporozoites were pre-incubated in media alone or with the various polymers for 15 minutes at 4° C. 5×10^4 sporozoites, in a volume of 10 μl, were added per chamber. After 4 hours of incubation at 37° C., the medium containing the sporozoites was gently aspirated, and 0.5 ml MEM/10% FCS was added. Fresh medium was added at 18 hours and 28 hours, and then cells were fixed with methanol containing 0.3% H2O2 at 48 hours. After fixation, the wells were blocked with 10% FCS/PBS and were incubated with 10 μg/ml of mAb 2E6. Binding of the mAb was detected with a polyclonal goat anti-mouse Ig conjugated to horseradish peroxidase. […] The parasites in each well are counted under a 40× light microscope objective.
The cells were fixed and stained with mAb 2E6, followed by goat-anti-mouse linked to horseradish peroxidase. Numbers represent schizonts counted/20 fields under 40× magnification in a light microscope.

[7] = system: Vivax-2 binding to sulfatide; assay: Inhibition of binding of Vivax-2 to sulfatide; set-up: species or system P. vivax
Protocol: as §1

[8] = biological target: T1, P.berghei CS protein binding to sulfatide (Plasmodium berghei, UniProt P06915); assay: Inhibition of binding of P.berghei CS protein to sulfatide
T1 construct: as well as the native P. berghei CS protein; endogenous in cells; host or cells: P. berghei sporozoites (extract, 35,000 sporozoite equivalents/well)
Protocol: as §1

[9] = biological target: hepatocyte plasma membrane receptor for the circumsporozoite protein on human hepatocytes and HepG2; assay: competition: fixed HepG2 cells preincubated with peptide, washed, then CSFZ (Cys) 2.5 µg/ml (competitor); cell ELISA
[10] = peptide 500 μg/ml present during invasion

PGSANKPKDELDYANIEKK [Pf4]
inhibition of the binding of CS27IVC to liver sections [1]: failed to inhibit
Number of EEF (Mean ± SD) (P. berghei sporozoites [2]; peptide 250 μg/ml present during invasion): 122.5 ± 13.4 and 123.7 ± 20.1 and 105.0 ± 12.5
Percentage of Inhibition (P. berghei sporozoites [2]; [10]): 0.0%
Number of EEF (Mean ± SD) (P. berghei sporozoites [2]; [10]): 375.2 ± 52

chondroitin sulfate
inhibition of CS binding to HepG2 cells [3]: not
effect on co-immunoprecipitation of the CS receptor by CSFZ(Cys) [4]: no effect
effect on co-immunoprecipitation of purified proteoglycans by CSFZ(Cys) [4]: not

heparin
% INHIBITION ([5]; inhibitor 1 mg/ml): 0%
% INHIBITION ([5]; inhibitor 10 mg/ml): 31.2%
inhibition of CS binding to HepG2 cells [3]: inhibited
invasion of hepatocytes by sporozoites in vitro (P. berghei sporozoites [6]): inhibited
effect on co-immunoprecipitation of the CS receptor by CSFZ(Cys) [4]: prevented
effect on co-immunoprecipitation of purified proteoglycans by CSFZ(Cys) [4]: inhibited co-immunoprecipitation
% INHIBITION ([7]; inhibitor 100 μg/ml): 0%

dextran
% INHIBITION ([5]; inhibitor 10 mg/ml): 0%
inhibition of CS binding to HepG2 cells [3]: not
effect on sporozoite invasion (P. berghei sporozoites [6]): no effect
% INHIBITION ([7]; inhibitor 1 mg/ml): 0%

dextran-sulfate
% INHIBITION ([5]; inhibitor 1 μg/ml): 12.2%
% INHIBITION ([5]; inhibitor 10 μg/ml): 21.1%
% INHIBITION ([5]; inhibitor 100 μg/ml): 25.6%
% INHIBITION ([5]; inhibitor 1 mg/ml): 33%
% INHIBITION ([5]; inhibitor 10 mg/ml): 40.5%
% INHIBITION ([5]; inhibitor 10 mg/ml, listed as dextran-sulfate): less than 50%
inhibition of CS binding to HepG2 cells [3]: inhibited
% INHIBITION ([8]; inhibitor 1 μg/ml): 31.2%
% INHIBITION ([8]; inhibitor 10 μg/ml): 63%
% INHIBITION ([8]; inhibitor 100 μg/ml): 79%
development of the liver stages (P. berghei sporozoites [6]; added after 4 hours of contact, after invasion): not affected
invasion of hepatocytes by sporozoites in vitro (P. berghei sporozoites [6]): inhibited
effect on sporozoite invasion (P. berghei sporozoites [6]): inhibited invasion in a dose-dependent fashion
% INHIBITION ([7]; inhibitor 1 μg/ml): 19%
% INHIBITION ([7]; inhibitor 10 μg/ml): 70.2%

fucoidan
inhibition of CS binding to HepG2 cells [3]: inhibited
invasion of hepatocytes by sporozoites in vitro (P. berghei sporozoites [6]): inhibited

heparan-sulfate
% INHIBITION ([5]; inhibitor 10 mg/ml): 0%
inhibition of CS binding to HepG2 cells [3]: inhibited
effect on sporozoite invasion (P. berghei sporozoites [6]): no effect
effect on binding to sulfatide ([7]; 1 mg/ml): no effect
% INHIBITION ([7]; inhibitor 1 mg/ml): 0%

CGNGIQVRIKPGSANKPKDE [Pf2]
IC50 [9]: 75 µg/mL

— patent US20030119733A1, “Compositions and methods for inhibiting hepatocyte invasion by malarial sporozoites” (New York University, priority 1992, published 2003)
